Legend:
K. pneumoniae 700623 = test: Synergistic bacteriostatic test (checkerboard test); assay type: cell-based, Klebsiella pneumoniae
Procedure: (§1) The synergistic bacteriostatic test is carried out by using the silver-containing antibacterial colloid (green mediated AgNP inhibitor) manufactured in the present embodiment and a bioactivator (using Gentamicin as an example). The fractional inhibitory concentration (FIC) index is used as a reference index for synergy. Synergy is the phenomenon in which two or more substances are mixed with each other, and the overall effect is greater than the advantage of each substance alone or less than the disadvantage of each substance alone. […] In the two-fold serial dilutions, the concentration of Gentamicin used for K. pneumoniae 700623 ranging from 1.25 μg·mL^−1 to 40 μg·mL^−1, and the concentration of Gentamicin used for K. pneumoniae BAA-1705 ranged from 5 μg·mL^−1 to 160 μg·mL^−1 The green mediated AgNP inhibitor extract extracted with TSB medium is used, and the above procedure is repeated to dilute the concentration of the green mediated AgNP inhibitor extract to 10 mg·mL^−1 50 μL of green mediated AgNP inhibitor is added longitudinally to the 96-well microplate in a two-fold serial dilution using MHB, followed by two-fold serial dilutions of six times at concentrations ranging from 0.31 mg·mL^−1 to 10 mg·mL^−1 Using 0.5 Mcfarland turbidity as the quantitative standard for bacterial solution (0.5 Mcfarland=10^8 CFU/mL). […]

K. pneumoniae BAA-1705 = test: as above; assay type: cell-based, Klebsiella pneumoniae
Procedure: as §1

[1] = in combination with green mediated AgNP inhibitor

**Q.** Gentamicin was tested. Which “concentration of Gentamicin when used in combination (G-MIC-com)” value (K. pneumoniae 700623; [1]) did it give?
**A.** Its value is 5 µg/mL.

**Q.** What about the “MIC of Gentamicin when used alone (MICG)” value (K. pneumoniae 700623; used alone) of the same substance?
**A.** The value was 40 µg/mL.

**Q.** And the “concentration of Gentamicin when used in combination (G-MIC-com)” value (K. pneumoniae BAA-1705; [1])?
**A.** The value was 10 µg/mL.

**Q.** What about the “MIC of Gentamicin when used alone (MICG)” value (K. pneumoniae BAA-1705; used alone) of the same substance?
**A.** Its value is 40 µg/mL.

Reference: US20200306185A1, “ANTIBACTERIAL COLLOID AND METHOD FOR MANUFACTURING THE SAME” (Kaohsiung Medical University, priority 2019, published 2020)
